The text below walks through data of patent US11261429B2, “Enriched and expanded human cord blood stem cells for treatment of hematological disorders” (ICAHN SCHOOL OF MEDICINE AT MOUNT SINAI, priority 2013, dated 2022).

What all share (assay type): cell-based, human
For one assay, the system named is CB CD34+ cells. The assay can be described thus: Ex vivo expansion of CB CD34+ cells with HDACIs, phenotypic analysis by flow cytometry. As to conditions: 7 days of culture with cytokines plus HDACI. From the text: CB collections were purchased from the Placental Blood Program at the New York Blood Center. CB-MNCs were isolated by Ficoll-Hypaque density centrifugation, and CD34+ cells were purified by immunotnagnetic selection as previously described (Chaurasia et al., “Chromatin-Modifying Agents Promote the Ex vivo Production of Functional Human Erythroid Progenitor Cells,” Blood 117:4632-4641 (2011), which is hereby incorporated by reference in its entirety). Highly purified (90%-98%) PCs (4.0-5.0×10^4) were cultured in SF Stemline II (Sigma-Aldrich) culture medium or IMDM (Lonza) containing 30% FBS (HyClone Laboratories) supplemented with 150 ng/ml SCF, 100 ng/ml fms-like tyrosine kinase receptor 3 (FLT3 ligand), 100 ng/ml thrombopoietin (TPO), and 50 ng/ml interleukin 3 (IL-3) (R&D Systems) and incubated in a humidified incubator maintained at 37° C. with 5% CO2. […] The cell populations studied and the various conditions under which they were cultured are referred to by specific terms listed in Table 1. Viable PC and cultured cells were enumerated using the trypan blue exclusion method. The fold expansion of CD34+ cells or subpopulations was calculated based on the number of CD34+ cells determined to be present in an individual CB collection and the number of CD34+ cells that would have been generated if all of the CD34+ cells within that primary CB collection were cultured using the various culture conditions described. PC or cultured cells expanded in the presence or absence of HDACIs were stained with an anti-human CD34 mAb or an isotype-matched control mAb and analyzed using a FACSCanto II (BD). CD34+ cells were re-isolated using a CD34+ cell isolation kit, as previously described, for further phenotypic and functional analyses. All mAbs were purchased from BD Biosciences and Cell Signaling Technology. Phenotypic analyses ([…], […], and […]7) of the ex vivo-expanded cells after 7 days in control cultures or cytokines plus an HDACI were performed as previously described (Chaurasia et al., “Chromatin-Modifying Agents Promote the Ex vivo Production of Functional Human Erythroid Progenitor Cells,” Blood 117:4632-4641 (2011), which is hereby incorporated by reference in its entirety).
On the technique in general: Flow cytometry measures light scatter and fluorescence of single cells or particles in a stream.

The next assay relates to HDAC1. The assay can be described thus: HDAC protein levels in CB-MNCs, Western blot densitometry. As to conditions: 24 hr, SCR 8 μM, C433 80 μM, VPA 1.25 mM. For orientation: Immunoblotting shows a protein as a band on a membrane.
A further assay relates to HDAC2. Described as above. The note with it: 24 hr, SCR 8 μM, C433 80 μM, VPA 1.25 mM.
A further assay deals with HDAC3. Described as above. The note with it: 24 hr, SCR 8 μM, C433 80 μM, VPA 1.25 mM.
For another assay, the system named is HDAC4. The description is as above. As to conditions: 24 hr, SCR 8 μM, C433 80 μM, VPA 1.25 mM.
Another assay deals with HDAC5. The description is as above. As to conditions: 24 hr, SCR 8 μM, C433 80 μM, VPA 1.25 mM.
The next assay has as its system HDAC6. Described as above. The note with it: 24 hr, SCR 8 μM, C433 80 μM, VPA 1.25 mM.
The next assay concerns class I and II HDAC. The assay can be described thus: HDAC protein levels in CB-MNCs, Western blot, all HDACs examined. The note with it: after 2 hours of treatment.

Excerpt for HDAC3: (§1) Cellular proteins were separated by SDS-PAGE using Novex (Invitrogen) and transferred by iBlot (Invitrogen). The membranes were probed with mAbs against individual histone deacetylases (HDAC1, HDAC2, HDAC3, HDAC4, HDAC5, HDAC6, and β-actin; Cell Signaling Technology) and developed using a chemiluminescence system with HRP-conjugated secondary antibodies (Amersham Biosciences) according to the manufacturer's instructions.
Excerpt for HDAC4: as §1
Excerpt for HDAC5: as §1
Excerpt for HDAC6: as §1
Excerpt for class I and II HDAC: as §1

For `Nc1ccccc1NC(=O)CCCCCCC(=O)Nc1ccccc1` [C433, CAY10433], the “percentage of CD34+CD90+ cells” value in the assay with CB CD34+ cells is given as 70.1%±18.4%. Moreover, in the assay on HDAC1, the “HDAC1 expression relative to b-ACTIN (%)” value stood at 24.3 ± 0.4%. In addition, the “HDAC2 expression relative to b-ACTIN (%)” value in the assay with HDAC2 came to 40.0 ± 8.0%. The “HDAC3 expression relative to b-ACTIN (%)” value in the assay on HDAC3 amounted to 28.0 ± 20.0%. Further, in the assay with HDAC4, the “HDAC4 expression relative to b-ACTIN (%)” value was found to be 23.5 ± 16.5%. For the same compound, the “HDAC5 expression relative to b-ACTIN (%)” value with HDAC5 turned out to be 12.6 ± 1.9%. In the assay with HDAC6, the “HDAC6 expression relative to b-ACTIN (%)” value stood at 35.8 ± 7.2%. Besides, the “inhibition of HDAC expression” value in the assay on class I and II HDAC is “did not inhibit HDAC expression”.
As to `O=C(CCCCCN1C(=O)c2cccc3cccc(c23)C1=O)NO` [SCR, Scriptaid], the “percentage of CD34+CD90+ cells” value with CB CD34+ cells is on record as 73.4%±13.9%. Also, in the assay with class I and II HDAC, the “inhibition of HDAC expression” value is recorded as “did not inhibit HDAC expression”.
